# Where a name gives a salt, the structure may show the parent alone.
# How the values were obtained:
# [1] = test system: primary hepatocytes from NRK1 knockout (NRK1KO) mice; assay: NAD+ levels in primary hepatocytes from control or NRK1 knockout mice; type: cell-based; conditions: after 1 hour of treatment
# Text: The action of NRH was also NAMPT-independent, based on experiments using FK866, a NAMPT inhibitor. If NRH led to NAD+ synthesis via the formation of NMNH, this hypothetical path would require the phosphorylation of NRH into NMNH. Given the essential and rate-limiting role of NRK1 in NR phosphorylation, we wondered whether the ability of NRH to boost NAD+ levels was NRK1 dependent. To answer this question, we evaluated NRH action in primary hepatocytes from either control or NRK1 knockout (NRK1KO) mice. […] Further, they rule out the possibility that NRH-induced NAD+ […] is driven by NRH oxidation into NR.
# [2] = Stability in isolated mouse plasma; type: in vitro ADME; conditions: spiked in isolated mouse plasma, 2 h of incubation
# Text: (§1) NR degradation to NAM has been proposed as a limitation for its pharmacological efficacy. To evaluate whether NRH was also susceptible to degradation to NAM, we spiked NRH or NR in isolated mouse plasma. […] We also tested the stability of NRH in other matrixes.
# [3] = Stability in FBS supplemented media; conditions: FBS supplemented media
# Text: as §1
# [4] = Tissue NAD+ levels after IP injection in mice; type: in vivo; conditions: IP 500 mg/kg, after 1 h
# Description: (§2) The above results prompted us to test whether NRH could act as an effective NAD+ precursor in vivo. For this, we first intraperitoneally (IP) injected mice with either NR or NRH (500 mg/kg).
# [5] = Circulating NAM, NRH and NR after IP injection in mice; type: in vivo; conditions: mice, IP 500 mg/kg
# Text: (§3) Levels of NRH and other NAD-related metabolites in biological samples were obtained by using a cold liquid-liquid extraction using a mixture of methanol:water:chloroform in 5:3:5 (v/v), from which the polar phase was recovered for hydrophilic interaction ultra-high performance liquid chromatography mass spectrometry (UHPLC-MS) analysis. The UHPLC consisted of a binary pump, a cooled autosampler, and a column oven (DIONEX Ultimate 3000 UHPLC+ Focused, Thermo Scientific), connected to a triple quadrupole spectrometer (TSQ Vantage, Thermo Scientific) equipped with a heated electrospray ionisation (H-ESI) source. Of each sample, 2 μL were injected into the analytical column (2.1 mm×150 mm, 5 μm pore size, 200 Å HILICON iHILIC®-Fusion(P)), guarded by a pre-column (2.1 mm×20 mm, 200 Å HILICON iHILIC®-Fusion(P) Guard Kit) operating at 35° C. The mobile phase (10 mM ammonium acetate at pH 9, A, and acetonitrile, B) was pumped at 0.25 mL/min flow rate over a linear gradient of decreasing organic solvent (0.5-16 min, 90-25% B), followed by re-equilibration for a total run time of 30 min. The MS operated in positive mode at 3500 V with multiple reaction monitoring (MRM). The software Xcalibur v4.1.31.9 (Thermo Scientific) was used for instrument control, data acquisition and processing. Retention time and mass detection was confirmed by authentic standards.
# as §2
# [6] = Plasma NRH, NR and NAM after oral administration in mice; type: in vivo; conditions: mouse, in vivo, po
# Description: 8 week-old C57BI/6NTac mice were orally gavaged with either saline (as vehicle), NR (500 mg/kg) or NRH (500 mg/kg). After 1 hour, liver, skeletal muscle and kidney NAD^+ levels were evaluated. All results are expressed as mean+/− SEM of n=5 mice per group. * indicates statistical difference at p<0.05 vs. vs. saline-treated mice. # indicates statistical difference at p<0.05 vs. NR treated mice.
# as §3
# Oral administration of NRH led to very similar results to those observed after IP administration. […] NRH was detectable in plasma 1 h after oral administration. In contrast, NR levels were undetectable at 1 h after NR administration.
# [7] = Intrahepatic and hepatic mitochondrial NAD+ after IP injection in mice; type: in vivo; conditions: NR 500 mg/kg or equimolar amounts, 1 hour later; for hepatic mitochondrial NAD+ levels: isolated liver mitochondria
# Description: 10 week old male mice were fasted for 2 hours prior to intraperitoneal injection (IP) with saline as control/vehicle, nicotinamide riboside (NR; 500 mg/kg) or equimolar amounts of dihydronicotinamide riboside (NRH) or nicotinamide (NAM). Then, 1 hour later, mice were euthanized and a piece of liver was snap frozen while another piece was used for mitochondrial isolation following a published procedure (Frezza et al., 2007; Nature Protocols). The piece of snap frozen liver was weighted and submitted to acidic extraction to evaluate NAD+ levels through enzymatic methods. For isolated mitochondria, protein was quantified and 200 micrograms of protein were used for acidic extraction and NAD+ measurement through enzymatic methods. […] All results are mean+/− SEM of n=4 animals per group. * indicates statistical difference at p<0.05 vs. control/vehicle group.
# NMNAT = assay: NRH-induced NAD+ synthesis with NMNAT inhibitor gallotannin; type: cell-based
# Text: As a follow-up step, NMNAT enzymes could catalyze the transition from NMNH to NADH.
# adenosine kinase (AK) = target: T1, adenosine kinase (AK) (Mus musculus, UniProt P55264); assay: NRH-induced NAD+ synthesis with adenosine kinase inhibitors; type: cell-based; design: effect of AK inhibitor on NRH action (NAD+ synthesis): dose or concentration left out as unconfirmed; conditions: for effect of AK inhibitor on NRH action (NAD+ synthesis): AML12 cells, inhibitor (5-IT) 1 hour prior to NRH, NAD+ measured 1 hour later
# T1 construct: endogenous in cells; host or cells: AML12 cells
# T1 sequence (P55264 whole entry): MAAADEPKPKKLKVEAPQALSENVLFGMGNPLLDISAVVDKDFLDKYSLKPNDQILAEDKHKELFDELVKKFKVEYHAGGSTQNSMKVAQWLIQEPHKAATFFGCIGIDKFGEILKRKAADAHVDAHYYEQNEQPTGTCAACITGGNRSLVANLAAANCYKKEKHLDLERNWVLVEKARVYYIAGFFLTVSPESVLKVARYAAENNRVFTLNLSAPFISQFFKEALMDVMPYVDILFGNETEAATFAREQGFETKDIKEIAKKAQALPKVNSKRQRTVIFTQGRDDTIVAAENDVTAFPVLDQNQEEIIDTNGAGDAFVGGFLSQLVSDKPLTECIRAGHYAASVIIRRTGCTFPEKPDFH
# Description: AML12 cells were treated with an adenosine kinase inhibitor (5-IT; […]) for 1 hour prior to NRH treatment at the doses indicated. Then, 1 hour later, acidic extracts were obtained to measure NAD^+ levels.
smiles,measurement,setting,value
"NC(=O)c1ccc[n+]([C@@H]2O[C@H](CO)[C@H](O)C2O)c1 (stereo partly drawn) [NR, 1-b-D-ribofuranosyl-3-pyridinecarboxamide salt, reference compound]",NAD+ levels in NRK1KO derived primary hepatocytes,[1],failed to increase NAD+ levels
same,compound levels in plasma,[2],decayed
same,generation of NAM in plasma,[2],increase in NAM
same,degradation to NAM,[3],as occurs with NR
same,NAD+ levels in kidney,[4],increased NAD+ levels
same,NAD+ levels in liver,[4],increased NAD+ levels
same,NAD+ levels in muscle,[4],increased NAD+ levels
same,NAM levels in circulation,[5],highly increased
same,circulating NAM relative to that after NRH treatment,"[6]; C57BI/6NTac, 1 h",~4 fold
same,administered compound in plasma,[6],undetectable
same,circulating NAM,[6],large increases
same,intrahepatic NAD+,[7],increase intrahepatic NAD+
same,hepatic mitochondrial NAD+ levels,[7],only NRH increases mitochondrial NAD+ levels
"NC(=O)c1cccnc1 [NAM, nicotinamide]",intrahepatic NAD+,[7],increase intrahepatic NAD+
same,hepatic mitochondrial NAD+ levels,[7],only NRH increases mitochondrial NAD+ levels
O=C(OC[C@H]1O[C@@H](OC(=O)c2cc(O)c(O)c(OC(=O)c3cc(O)c(O)c(O)c3)c2)[C@H](OC(=O)c2cc(O)c(O)c(OC(=O)c3cc(O)c(O)c(O)c3)c2)[C@@H](OC(=O)c2cc(O)c(O)c(OC(=O)c3cc(O)c(O)c(O)c3)c2)[C@@H]1OC(=O)c1cc(O)c(O)c(OC(=O)c2cc(O)c(O)c(O)c2)c1)c1cc(O)c(O)c(OC(=O)c2cc(O)c(O)c(O)c2)c1 [gallotannin],effect of NMNAT inhibitor on NAD+ synthesis after NRH treatment,NMNAT,largely compromised NAD+ synthesis
same,effect of NMNAT inhibitor on NRH action,NMNAT; NRH at maximal doses (0.5 mM),part of the NRH action remained
same,effect of NMNAT inhibitor on NRH action,NMNAT; NRH at submaximal doses,totally blocked
"Nc1ncnc2c1c(I)cn2[C@@H]1O[C@H](CO)[C@@H](O)[C@H]1O [5-IT, 5-iodotubercidin]",effect of AK inhibitor on NRH action (NAD+ synthesis),adenosine kinase (AK),fully ablated the action of NRH
same,formation of NR and NMN after NRH treatment,adenosine kinase (AK); with 5-IT treatment,prevented the formation of NR and NMN
Nc1ncnc2nc(-c3ccc(N4CCOCC4)nc3)cc(-c3cccc(Br)c3)c12 [ABT-702],effect of AK inhibitor on NRH action (NAD+ synthesis),adenosine kinase (AK),confirmed

# From patent US20220323468A1, “REDUCED NICOTINAMIDERIBOSIDES FOR THE TREATMENT/PREVENTION OF LIVER DISEASE” (SOCIETE DES PRODUITS NESTLE S.A., priority 2019, published 2022)
